Data: US20230021880A1, “Cladribine regimen for treating progressive forms of Multiple Sclerosis” (Merck Patent GmbH, priority 2017, published 2023)
Where two headings read alike, the source gives them in different places.

Key:
[1] = Cladribine pharmacokinetics following oral administration; conditions: MS patients; after oral administration of single 10-mg tablet
[2] = Intracellular pharmacokinetics of Cd-AMP and Cd-ATP in patients with chronic myelogenous leukemia; conditions: human, in vivo
Experimental: After entering the target cells, Cladribine is phosphorylated to Cladribine monophosphate (Cd-AMP) by DCK (and also by deoxyguanosine kinase in the mitochondria). Cd-AMP is further phosphorylated to Cladribine diphosphate (Cd-ADP) and Cladribine triphosphate (Cd-ATP). The dephosphorylation and deactivation of Cd-AMP is catalyzed by cytoplasmic […].
Intracellular half-life of Cd-ATP was 10 h.

[3] = system: PPMS patients; conditions: cited from earlier work
[4] = system: PPMS patients; conditions: ORATORIO, cited from earlier work
[5] = system: PPMS patients; conditions: cited from earlier work; remark: listed apart in the source

Nc1nc(Cl)nc2nc[nH]c12 [2-chloroadenine]
metabolite share of plasma parent drug exposure [1]: < 3%

Nc1nc(Cl)nc2c1ncn2[C@H]1C[C@H](O)[C@@H](COP(=O)(O)OP(=O)(O)OP(=O)(O)O)O1 [Cd-ATP, 2-chlorodeoxyadenosine triphosphate]
half-life [2]: 10 h
intracellular levels relative to Cd-AMP [2]: approximately half of the Cd-AMP levels

Cladribine monophosphate [Cd-AMP]
Intracellular half-life [2]: 15 h

glatiramer acetate
study outcome ([3]; PROMISE Study in PPMS): did not reach meaningful clinical endpoints
EDSS progression overall HR (95% CI) ([3]; PROMISE, CDP (3)): 0.87
% with CDP study drug, CDP (3) Month 12 ([3]; PROMISE, PPMS): 22%
% with CDP study drug, CDP (3) Month 24 ([3]; PROMISE, PPMS): 41%

ocrelizumab: humanized monoclonal antibody that targets the CD20 surface molecule on B-cells
EDSS progression overall HR (95% CI) ([4]; CDP (3)): 0.76
EDSS progression overall HR (95% CI) ([4]; CDP (6)): 0.75
% with CDP study drug, CDP (3) Week 120 [4]: 32.9%
% with CDP study drug, CDP (6) Week 120 [4]: 29.7%
% with CDP study drug, CDP (3) Month 12 ([4]; derived from the KM): ~13.2%
% with CDP study drug, CDP (6) Month 12 ([4]; derived from the KM): ~15.2%

rituximab: study drug of the OLYMPUS study in PPMS
study outcome ([5]; OLYMPUS study in PPMS): did not reach meaningful clinical endpoints
EDSS progression overall HR (95% CI) ([5]; OLYMPUS, CDP (3)): 0.77
% with CDP study drug, CDP (3) Week 48 ([5]; OLYMPUS, PPMS): 20.2%
% with CDP study drug, CDP (3) Week 96 ([5]; OLYMPUS, PPMS): 30.2%
% with CDP study drug, CDP (6) Week 96 ([5]; OLYMPUS, PPMS): 27.3%
